Results on 8 compounds are retold here after patent US11845736B2, “Prodrugs of MDMA, MDA, and derivatives thereof” (EmpathBio, Inc., priority 2021, dated 2023).

In brackets after ≈: the same amount, converted by molar mass.

In general, solubility refers to the concentration that dissolves in the medium under given conditions. Read a low solubility as little dissolved substance.

A short description of data set [1]: Compound solubility in FaSSIF.
Data set [2] in a line: Compound mouse plasma stability.
A short description of data set [3]: Compound chemical stability PBS (pH 6.5).
Data set [4] in a line: Compound chemical stability SGF with pepsin.
Data set [5] in a line: Compound chemical stability SGF without pepsin.

In data set [1], `C[C@H](Cc1ccc2c(c1)OCO2)NC(=O)OC(C)(C)C` [Compound 6, tert-butyl(R)-(1-(benzo[d][1,3]dioxol-5-yl)propan-2-yl)carbamate] displayed a solubility of 175 µM (≈ 49 µg/mL). Further, the “% Remaining” value is 100% in data set [2] (0 minutes); 102% in data set [2] (15 minutes); 106% in data set [2] (30 minutes); 92% in data set [2] (60 minutes); 95% in data set [2] (120 minutes); 100.00% in data set [3] (PBS pH 6.5, 0 minutes). Besides, the “% Remaining” value in data set [3] (PBS pH 6.5, 30 minutes) is 84.81%; in data set [3] (PBS pH 6.5, 60 minutes), 93.60%; in data set [3] (PBS pH 6.5, 120 minutes), 103.65%; in data set [3] (PBS pH 6.5, 240 minutes) it was 91.66%; in data set [4] (0 minutes) it was 100.00%; in data set [4] (30 minutes) it was 85.17%. In addition, the “% Remaining” value in data set [4] (60 minutes) is on record as 79.89%; in data set [4] (120 minutes), 56.87%; in data set [4] (240 minutes), 31.48%; in data set [5] (0 minutes), 100.00%; in data set [5] (30 minutes), 87.96%; in data set [5] (60 minutes) it was 77.20%. Moreover, the results for the “% Remaining” value in data set [5] (120 minutes) and in data set [5] (240 minutes) were 57.49% and 28.57%, respectively.

In data set [1], `Cc1oc(=O)oc1CN(C)[C@H](C)Cc1ccc2c(c1)OCO2` [Compound 9, (R)-4-(((1-(benzo[d][1,3]dioxol-5-yl)propan-2-yl)(methyl)amino)methyl)-5-methyl-1,3-dioxol-2-one] yielded a solubility of 223 µM (≈ 68.2 µg/mL). For the same compound, the “% Remaining” value in data set [2] (0 minutes) is reported as 100%; in data set [2] (15 minutes) it was 70%; in data set [2] (30 minutes), 22%; in data set [2] (60 minutes) it was 4%; in data set [3] (PBS pH 6.5, 0 minutes) it was 100%; in data set [3] (PBS pH 6.5, 30 minutes), 83%. Besides, the “% Remaining” value in data set [3] (PBS pH 6.5, 60 minutes) stood at 75%; in data set [3] (PBS pH 6.5, 120 minutes) it was 55%; in data set [3] (PBS pH 6.5, 240 minutes), 32%; in data set [4] (0 minutes) it was 100%; in data set [4] (30 minutes) it was 97%; in data set [4] (60 minutes), 92%. For the same compound, the “% Remaining” value came out at 87% in data set [4] (120 minutes); 71% in data set [4] (240 minutes); 1000% in data set [5] (0 minutes); 94% in data set [5] (30 minutes); 89% in data set [5] (60 minutes); 83% in data set [5] (120 minutes). The “% Remaining” value in data set [5] (240 minutes) is on record as 72%.

In data set [1], `CC(Cc1ccc2c(c1)OCO2)N(C)C(=O)CN` (centres unmarked) [Compound 4, 2-amino-N-(1-(benzo[d][1,3]dioxol-5-yl)propan-2-yl)-N-methylacetamide] displayed a solubility of 291 µM (≈ 72.9 µg/mL). The “% Remaining” value in data set [2] (0 minutes) worked out at 100.00%; in data set [2] (15 minutes) it was 102.99%; in data set [2] (30 minutes) it was 83.50%; in data set [2] (60 minutes), 94.51%; in data set [2] (120 minutes), 87.42%; in data set [3] (PBS pH 6.5, 0 minutes), 100.00%. Further, the “% Remaining” value came out at 88.84% in data set [3] (PBS pH 6.5, 30 minutes); 92.54% in data set [3] (PBS pH 6.5, 60 minutes); 92.04% in data set [3] (PBS pH 6.5, 120 minutes); 92.48% in data set [3] (PBS pH 6.5, 240 minutes); 100.00% in data set [4] (0 minutes); 108.06% in data set [4] (30 minutes). In addition, the “% Remaining” value in data set [4] (60 minutes) was found to be 98.50%; in data set [4] (120 minutes), 106.18%; in data set [4] (240 minutes), 103.88%; in data set [5] (0 minutes), 100.00%; in data set [5] (30 minutes), 94.49%; in data set [5] (60 minutes), 96.72%. Further, the “% Remaining” value was 96.67% in data set [5] (120 minutes) and 96.46% in data set [5] (240 minutes).

The compound `CC(Cc1ccc2c(c1)OCO2)NC(=O)CN` (centres unmarked) [Compound 5, 2-amino-N-(1-(benzo[d][1,3]dioxol-5-yl)propan-2-yl)acetamide] returned a solubility in data set [1] of 304 µM (≈ 71.8 µg/mL). Also, the “% Remaining” value was 100.00% in data set [2] (0 minutes); 103.33% in data set [2] (15 minutes); 87.64% in data set [2] (30 minutes); 90.78% in data set [2] (60 minutes); 83.06% in data set [2] (120 minutes); 100.00% in data set [3] (PBS pH 6.5, 0 minutes). Further, the “% Remaining” value in data set [3] (PBS pH 6.5, 30 minutes) is given as 95.53%; in data set [3] (PBS pH 6.5, 60 minutes) it was 97.09%; in data set [3] (PBS pH 6.5, 120 minutes), 98.67%; in data set [3] (PBS pH 6.5, 240 minutes), 105.87%; in data set [4] (0 minutes) it was 100.00%; in data set [4] (30 minutes) it was 99.68%. The “% Remaining” value in data set [4] (60 minutes) is listed as 105.84%; in data set [4] (120 minutes) it was 94.42%; in data set [4] (240 minutes), 91.97%; in data set [5] (0 minutes) it was 100.00%; in data set [5] (30 minutes) it was 101.17%; in data set [5] (60 minutes), 91.48%. The results for the “% Remaining” value in data set [5] (120 minutes) and in data set [5] (240 minutes) were 95.49% and 100.41%, respectively.

Turning to `CCOC(=O)N(C)C(C)Cc1ccc2c(c1)OCO2` (centres unmarked) [Compound 1, ethyl(1-(benzo[d][1,3]dioxol-5-yl)propan-2-yl)(methyl)carbamate], the solubility in data set [1] was found to be 309 µM (≈ 82 µg/mL). For the same compound, the “% Remaining” value in data set [2] (0 minutes) is 100.00%; in data set [2] (15 minutes), 108.51%; in data set [2] (30 minutes) it was 87.67%; in data set [2] (60 minutes), 98.49%; in data set [2] (120 minutes) it was 89.31%; in data set [3] (PBS pH 6.5, 0 minutes), 100.00%. Also, the “% Remaining” value was found to be 90.48% in data set [3] (PBS pH 6.5, 30 minutes); 90.36% in data set [3] (PBS pH 6.5, 60 minutes); 89.59% in data set [3] (PBS pH 6.5, 120 minutes); 90.28% in data set [3] (PBS pH 6.5, 240 minutes); 100.00% in data set [4] (0 minutes); 101.86% in data set [4] (30 minutes). In addition, the “% Remaining” value in data set [4] (60 minutes) is reported as 98.61%; in data set [4] (120 minutes) it was 103.31%; in data set [4] (240 minutes), 100.50%; in data set [5] (0 minutes), 100.00%; in data set [5] (30 minutes), 103.81%; in data set [5] (60 minutes), 101.90%. For the same compound, the “% Remaining” value was 103.81% in data set [5] (120 minutes) and 104.29% in data set [5] (240 minutes).

In data set [1], `Cc1oc(=O)oc1CN[C@H](C)Cc1ccc2c(c1)OCO2` [Compound 8, (R)-4-(((1-(benzo[d][1,3]dioxol-5-yl)propan-2-yl)amino)methyl)-5-methyl-1,3-dioxol-2-one] showed a solubility of 283 µM (≈ 82.4 µg/mL). In addition, the “% Remaining” value is on record as 100% in data set [2] (0 minutes); 72% in data set [2] (15 minutes); 54% in data set [2] (30 minutes); 25% in data set [2] (60 minutes); 6% in data set [2] (120 minutes); 100% in data set [3] (PBS pH 6.5, 0 minutes). Moreover, the “% Remaining” value was 96% in data set [3] (PBS pH 6.5, 30 minutes); 93% in data set [3] (PBS pH 6.5, 60 minutes); 75% in data set [3] (PBS pH 6.5, 120 minutes); 72% in data set [3] (PBS pH 6.5, 240 minutes); 100% in data set [4] (0 minutes); 103% in data set [4] (30 minutes). In addition, the “% Remaining” value in data set [4] (60 minutes) came to 98%; in data set [4] (120 minutes) it was 96%; in data set [4] (240 minutes) it was 92%; in data set [5] (0 minutes), 100%; in data set [5] (30 minutes) it was 97%; in data set [5] (60 minutes), 94%. In addition, the “% Remaining” value in data set [5] (120 minutes) turned out to be 90%; in data set [5] (240 minutes), 86%.

Take `CC(OC(=O)N(C)C(C)Cc1ccc2c(c1)OCO2)OC(=O)C(C)(C)C` (centres unmarked) [Compound 3, 1-(((1-(benzo[d][1,3]dioxol-5-yl)propan-2-yl)(methyl)carbamoyl)oxy)ethyl pivalate]: the solubility in data set [1] turned out to be 101 µM (≈ 37 µg/mL). Besides, the “% Remaining” value in data set [2] (0 minutes) turned out to be 100%; in data set [2] (15 minutes), 0.0%; in data set [2] (30 minutes), 0.0%; in data set [2] (60 minutes), 0.0%; in data set [2] (120 minutes), 0.0%; in data set [3] (PBS pH 6.5, 0 minutes) it was 100.00%. Further, the “% Remaining” value in data set [3] (PBS pH 6.5, 30 minutes) amounted to 103.45%; in data set [3] (PBS pH 6.5, 60 minutes), 107.91%; in data set [3] (PBS pH 6.5, 120 minutes), 105.56%; in data set [3] (PBS pH 6.5, 240 minutes), 96.60%; in data set [4] (0 minutes), 100.00%; in data set [4] (30 minutes) it was 106.44%. Moreover, the “% Remaining” value in data set [4] (60 minutes) is reported as 108.51%; in data set [4] (120 minutes) it was 103.98%; in data set [4] (240 minutes) it was 106.17%; in data set [5] (0 minutes) it was 100.00%; in data set [5] (30 minutes) it was 97.82%; in data set [5] (60 minutes) it was 97.35%. The “% Remaining” value in data set [5] (120 minutes) is listed as 93.65%; in data set [5] (240 minutes) it was 94.12%.

For `CCOC(=O)NC(C)Cc1ccc2c(c1)OCO2` (centres unmarked) [Compound 2, ethyl(1-(benzo[d][1,3]dioxol-5-yl)propan-2-yl)carbamate], the concentration in solution in data set [1] (solubility) was 313 µM (≈ 78.8 µg/mL). Moreover, the “% Remaining” value is reported as 100.00% in data set [2] (0 minutes); 101.77% in data set [2] (15 minutes); 86.60% in data set [2] (30 minutes); 89.02% in data set [2] (60 minutes); 84.42% in data set [2] (120 minutes); 100.00% in data set [3] (PBS pH 6.5, 0 minutes). The “% Remaining” value in data set [3] (PBS pH 6.5, 30 minutes) is on record as 89.05%; in data set [3] (PBS pH 6.5, 60 minutes), 87.87%; in data set [3] (PBS pH 6.5, 120 minutes), 91.21%; in data set [3] (PBS pH 6.5, 240 minutes), 88.66%; in data set [4] (0 minutes), 100.00%; in data set [4] (30 minutes) it was 100.95%. The “% Remaining” value in data set [4] (60 minutes) was determined as 97.74%; in data set [4] (120 minutes) it was 98.18%; in data set [4] (240 minutes) it was 99.08%; in data set [5] (0 minutes), 100.00%; in data set [5] (30 minutes), 102.53%; in data set [5] (60 minutes) it was 101.64%. The “% Remaining” value in data set [5] (120 minutes) is given as 90.45%; in data set [5] (240 minutes) it was 99.40%.
